# Measurements published in patent publication US20250326765A1, “PDE4B INHIBITOR AND USE THEREOF” (XIZANG HAISCO PHARMACEUTICAL CO., LTD., priority 2022, published 2025).
# Like-named read-outs stand apart in the source and are kept apart here.
# Columns and labels:
# [1] = molecular target: T1, PDE4B2 (Homo sapiens, UniProt Q07343); experiment: Effect of compounds on PDE4B2 activity (fluorescence polarization kit); type: biochemical
# T1 construct: purchased BPS Bioscience 60343
# Description: The effect of compounds on PDE4B2 activity was detected by a fluorescence polarization kit (BPS Bioscience, Catalog #60343). According to the instructions of the kit, FAM-Cyclic-3′,5′-AMP at a final concentration of […], 1 ng/well of PDE4B2 (PDE buffer was added to the negative control well), and a compound diluted in a gradient manner (PDE buffer containing 10% DMSO was added to the positive control well) were added to each well, fully mixed, and then reacted at room temperature for 1 h. The Binding Agent was diluted with the Binding Agent Diluent (cAMP) at a ratio of 1:100 for later use, the Binding Agent dilution was taken and added to the test plate at 50 μl/well and incubated at room temperature with slow shaking for 20 minutes. After the incubation was complete, Envision was used for FP detection, with Excitation at 480 nm and Emission at 535 nm. FP was usually represented by mP value.
# [formula] • I∥ (S535): fluorescence intensity in parallel direction • I⊥ (P535): fluorescence intensity in perpendicular direction • G: G factor=1
# (§1) [formula] • mP(sample): mP of the test compound in a reaction well • mP(negative control): mP in the negative control well • mP(positive control): mP in the positive control well
# (§2) According to the calculated inhibition rate at each concentration, the IC50 value of each compound was calculated by GraphPad Prism 8 software.
# [2] = molecular target: T2, PDE4D2 (Homo sapiens, UniProt Q08499); experiment: Effect of compounds on PDE4D2 activity (fluorescence polarization kit); type: biochemical; details: class symbols
# T2 construct: purchased BPS Bioscience 60345
# Description: The effect of compounds on PDE4D2 activity was detected by a fluorescence polarization kit (BPS Bioscience, Catalog #60345). During the reaction, 12.5 μL of 0.272 ng/well of an enzyme (final concentration: 0.068 ng/well) and 12.5 μL of the compound diluted in a gradient manner (DMSO concentration: 4%) were first pre-incubated at room temperature for 15 minutes, the same volume of the enzyme at the same concentration and 12.5 μL of PDE buffer containing 4% DMSO were added to the positive control well, and 25 μL of PDE buffer containing 2% DMSO was added to the negative control well. After completion, 25 μL of […] FAM-Cyclic-3′,5′-AMP (final concentration: […]) was added to each well, fully mixed, and then incubated at room temperature with slow shaking for 30 minutes. The Binding Agent was diluted with the Binding Agent Diluent (cAMP) at a ratio of 1:100 for later use, 100 μl/well of the Binding Agent dilution was taken and added to all wells of the test plate and incubated at room temperature with slow shaking for 1 hour.
# After the incubation was complete, BMG LRBTECH microplate reader was used for FP detection, with Excitation at 485 nm and Emission at 520 nm. FP was usually represented by mP value.
# [formula] • I∥ (S520): fluorescence intensity in parallel direction • I⊥ (P520): fluorescence intensity in perpendicular direction • G: G factor=1
# as §1, §2
# [3] = Inhibition of LPS-induced TNF-α release from human peripheral blood mononuclear cells in vitro; type: cell-based; details: PBMC, hPBMC, 100 ng/mL LPS, 4 h; for IC50: class symbols, read-out: Re IC50 (nM) (relative IC50), TNF-α induced by LPS; for Emax: read-out: Max inhibition (%)
# Description: Normal human peripheral blood which was anticoagulated (citric acid anticoagulation) was collected, and hPBMCs were prepared by Ficoll-Paque PLUS (Cytiva, Cat #17144002, density 1.077 g/mL). The concentration of hPBMC cells was adjusted to 0.25×10^6 cells/mL with RPMI1640 medium and inoculated into a 96-well plate in an amount of 50000 cells per well. Subsequently, different concentrations of drugs were added for pre-incubation for 1 h (the DMSO final concentration was 0.1%, and the positive and negative control wells had the same volume of RPMI1640 containing 0.1% DMSO). After the pre-incubation was complete, 100 ng/mL LPS (SIGMA, L2630) was added to the compound and positive control wells, and the negative control well had the same volume of RPMI1640 containing 0.1% DMSO. Incubation was carried out for 4 h in an incubator at 37° C. and 5% CO2. The cell supernatant was collected, and the content of TNF-α in the supernatant sample was detected by human TNF-α Elisa quantitative test kit (Sino Biological, Cat #KIT10602). The IC50 value was calculated using GraphPad Prism software.
# [4] = Pharmacokinetic test in mice; type: in vivo, ICR mice
# Description: 5.1 Experimental animals: Male ICR mice, 20-25 g, 6 mice/compound. Purchased from Chengdu Ddossy Experimental Animals Co., Ltd.
# 5.2 Experimental design: On the day of the experiment, 42 ICR mice were randomly grouped according to their body weights. The animals were fasted with water available for 12-14 h one day before administration and fed 4 h after administration.
# Before and after administration, 0.06 mL of blood was taken from the orbit under isoflurane anesthesia and placed in an EDTAK2 centrifuge tube for centrifugation at 5000 rpm at 4-C for 10 min, followed by plasma collection. The blood collection time points for the intravenous group and intragastric group were both 0 m, 5 mi, 15 mi, 30 mi, 1 h, 2 h, 4 h, 6 h, 8 h, and 24 h. Before analysis and detection, all the samples were stored at −80° C., and the samples were subjected to quantitative analysis using LC-MS/MS.
# [5] = class symbols, read-out: PDE4B2 IC50
# [6] = male, ICR, mouse, iv, plasma, i.v. (5 mg/kg)
# [7] = male, ICR, mouse, po, plasma, i.g. (10 mg/kg)
# T2 sequence (Q08499 303-809): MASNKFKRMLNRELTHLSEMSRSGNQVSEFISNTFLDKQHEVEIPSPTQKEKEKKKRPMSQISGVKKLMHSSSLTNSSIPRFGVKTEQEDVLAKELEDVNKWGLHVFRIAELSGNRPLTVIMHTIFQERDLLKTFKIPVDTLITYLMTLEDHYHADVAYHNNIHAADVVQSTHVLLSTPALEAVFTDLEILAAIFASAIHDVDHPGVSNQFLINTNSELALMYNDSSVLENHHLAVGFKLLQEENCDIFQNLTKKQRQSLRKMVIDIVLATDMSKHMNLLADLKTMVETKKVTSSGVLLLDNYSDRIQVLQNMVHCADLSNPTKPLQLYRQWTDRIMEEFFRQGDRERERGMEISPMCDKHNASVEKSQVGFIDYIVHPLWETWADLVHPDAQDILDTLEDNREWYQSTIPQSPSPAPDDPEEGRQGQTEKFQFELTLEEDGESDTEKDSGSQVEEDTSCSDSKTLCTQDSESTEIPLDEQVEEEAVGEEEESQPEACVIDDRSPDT
# T1 sequence (Q07343 1-564 isoform Q07343-2): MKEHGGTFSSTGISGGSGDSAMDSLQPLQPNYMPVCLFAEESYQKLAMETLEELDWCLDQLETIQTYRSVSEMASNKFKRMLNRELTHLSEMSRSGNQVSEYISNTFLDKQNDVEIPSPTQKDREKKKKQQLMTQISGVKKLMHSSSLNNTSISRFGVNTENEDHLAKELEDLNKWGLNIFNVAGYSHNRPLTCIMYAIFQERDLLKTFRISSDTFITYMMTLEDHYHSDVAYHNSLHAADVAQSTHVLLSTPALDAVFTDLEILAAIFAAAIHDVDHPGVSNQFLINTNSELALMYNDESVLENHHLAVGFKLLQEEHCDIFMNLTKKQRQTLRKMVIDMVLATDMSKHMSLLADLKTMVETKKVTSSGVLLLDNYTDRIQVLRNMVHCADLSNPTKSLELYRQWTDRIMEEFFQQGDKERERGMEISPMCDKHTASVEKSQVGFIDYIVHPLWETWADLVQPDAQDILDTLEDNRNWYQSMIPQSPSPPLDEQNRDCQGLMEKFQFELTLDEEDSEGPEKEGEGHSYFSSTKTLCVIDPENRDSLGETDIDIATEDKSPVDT
Structure (SMILES),"IC50 [1, 5] [nM]",IC50 [2] [nM],further results
"N#Cc1ccc2c(c1)OCC1CN(c3nc4c(c(NC5(CO)CCC5)n3)[S+]([O-])CC4)CCN21 (single isomer, unassigned) [Compound 74-1]",< 10,< 10,IC50 [3]: 10 to 50 nM; Emax [3]: 72.4%
"CC(=O)N1CCN2c3ccc(-c4nc5c(c(NC6(CO)CCC6)n4)[S+]([O-])CC5)cc3OCC2C1 (single isomer, unassigned) [Compound 78-1]",10 to 50,–,IC50 [3]: < 10 nM; Emax [3]: 61.2%
"CC1CN(c2ccc3c(c2)OCC2CN(c4nc5c(c(NC6(CO)CCC6)n4)[S@+]([O-])CC5)CCN32)C1 (single isomer, unassigned) [Compound 81-2]",< 10,< 10,–
[O-][S@+]1CCc2nc(N3CC=C(c4ccc(Cl)cc4)CC3)nc(NC3(CO)CCC3)c21 [Compound 1],< 10,< 10,"IC50 ([1]; values in text, read-out: IC50 against PDE4B2): 2.45 nM; F ([4]; i.g. (10 mg/kg)): 76.2 ± 4.7%; AUC(0-t) [4, 6]: 8660 ± 759 ng·h/mL; clearance [4, 6]: 4.55 ± 0.46 mL/min/kg; half-life [4, 6]: 6.17 ± 0.71 h; Vd ([4]; male, ICR, mouse, iv, plasma, i.v. (5 mg/kg), read-out: Vdss): 2.07 ± 0.2 L/kg; AUC(0-t) [4, 7]: 26400 ± 1640 ng·h/mL; half-life [4, 7]: 15.7 ± 4.1 h"
[O-][S@+]1CCc2nc(N3CC=C(c4ccc(Cl)cc4)CCC3)nc(NC3(CO)CCC3)c21 [Compound 4],10 to 50,10 to 50,–
[O-][S@+]1CCc2nc(N3C[C@H]4CN(c5ccc(Cl)cc5)C[C@H]4C3)nc(NC3(CO)CCC3)c21 [Compound 6],10 to 50,< 10,–
[O-][S@+]1CCc2nc(N3CCC(c4ccc5c(c4)CC5)CC3)nc(NC3(CO)CCC3)c21 [Compound 8],10 to 50,10 to 50,–
[O-][S@+]1CCc2nc(N3CCC(c4ccc5c(c4)CCC5)CC3)nc(NC3(CO)CCC3)c21 [Compound 9],–,10 to 50,–
[O-][S@+]1CCc2nc(N3CC4(CC(c5ccc(Cl)cc5)C4)C3)nc(NC3(CO)CCC3)c21 [Compound 10],10 to 50,10 to 50,–
[O-][S+]1CCc2nc(N3CCC4=C(CCc5cc(Cl)ccc54)C3)nc(NC3(CO)CCC3)c21 (stereo not drawn) [Compound 30],–,< 10,–
[O-][S@+]1CCc2nc(C3=CCN(c4ncc(Cl)cn4)CC3)nc(NC3(CO)CCC3)c21 [Compound 32],–,10 to 50,–
[O-][S@+]1CCc2nc(N3CCC(c4ccc(Cl)cc4)=C(F)C3)nc(NC3(CO)CCC3)c21 [Compound 43],< 10,10 to 50,–
N#Cc1cnc(C2=CCN(c3nc4c(c(NC5(CO)CCC5)n3)[S@+]([O-])CC4)CC2)nc1 [Compound 50],10 to 50,10 to 50,–
[O-][S@+]1CCc2nc(N3CC=C(c4cccc(S(F)(F)(F)(F)F)c4)CC3)nc(NC3(CO)CCC3)c21 [Compound 51],< 10,10 to 50,–
[O-][S@+]1CCc2nc(N3CC=C(c4cccc(SC(F)(F)F)c4)CC3)nc(NC3(CO)CCC3)c21 [Compound 52],–,10 to 50,–
[O-][S+]1CCc2nc(N3CC=C(c4ncc(C5CC5)cn4)CC3)nc(NC3(CO)CCC3)c21 (stereo not drawn) [Compound 53],< 10,< 10,–
